pIC50: −log10 of the molar value. Activity calls are given as the source filed them.
How the values were obtained:
MDA-MB-231 [1] = assay: Inhibition of autophagic flux in human MDA-MB-231 cells assessed as increase in nuclear p62 expression measured after 48 hrs by immunofluorescence analysis; assay type: functional, cell-based; conditions: dose 5-20 µM, DDE = dose-dependent effect
MDA-MB-231 [2] = assay: Cell cycle arrest in human MDA-MB-231 cells assessed as reduction in CDK2 expression measured after 48 hrs by Western blot analysis; assay type: functional, cell-based; conditions: dose 5-20 µM, DDE = dose-dependent effect
MDA-MB-468 [3] = assay: Induction of DNA damage in human MDA-MB-468 cells assessed as increase in gamma-H2AX accumulation measured after 48 hrs by immunofluorescence analysis; assay type: functional, cell-based
MDA-MB-231 [4] = assay: Induction of mitochondrial membrane potential loss in human MDA-MB-231 cells at 20 uM measured after 48 hrs by JC-1 staining based assay relative to control; assay type: functional
PC-3 = assay: Antiproliferative activity against human PC-3 cells assessed as cell growth inhibition measured after 48 hrs by MTT assay; assay type: functional, cell-based; conditions: PC-3, 48 h
MDA-MB-468 [5] = assay: Inhibition of autophagic flux in human MDA-MB-468 cells assessed as reduction in RNF8 expression at 5 to 20 uM measured after 6 to 48 hrs by Western blot analysis; assay type: functional, cell-based; conditions: dose 5-20 µM, time 6-48 hrs
[6] = molecular target: T1, Structural maintenance of chromosomes protein 1A (Homo sapiens) (UniProt Q14683); assay: Activation of SMC1 phosphorylation in human MDA-MB-231 cells at 5 to 20 uM measured after 6 to 48 hrs by Western blot analysis; assay type: cell-based; conditions: filed as activator, dose 5-20 µM, time 6-48 hrs
T1 sequence (whole entry): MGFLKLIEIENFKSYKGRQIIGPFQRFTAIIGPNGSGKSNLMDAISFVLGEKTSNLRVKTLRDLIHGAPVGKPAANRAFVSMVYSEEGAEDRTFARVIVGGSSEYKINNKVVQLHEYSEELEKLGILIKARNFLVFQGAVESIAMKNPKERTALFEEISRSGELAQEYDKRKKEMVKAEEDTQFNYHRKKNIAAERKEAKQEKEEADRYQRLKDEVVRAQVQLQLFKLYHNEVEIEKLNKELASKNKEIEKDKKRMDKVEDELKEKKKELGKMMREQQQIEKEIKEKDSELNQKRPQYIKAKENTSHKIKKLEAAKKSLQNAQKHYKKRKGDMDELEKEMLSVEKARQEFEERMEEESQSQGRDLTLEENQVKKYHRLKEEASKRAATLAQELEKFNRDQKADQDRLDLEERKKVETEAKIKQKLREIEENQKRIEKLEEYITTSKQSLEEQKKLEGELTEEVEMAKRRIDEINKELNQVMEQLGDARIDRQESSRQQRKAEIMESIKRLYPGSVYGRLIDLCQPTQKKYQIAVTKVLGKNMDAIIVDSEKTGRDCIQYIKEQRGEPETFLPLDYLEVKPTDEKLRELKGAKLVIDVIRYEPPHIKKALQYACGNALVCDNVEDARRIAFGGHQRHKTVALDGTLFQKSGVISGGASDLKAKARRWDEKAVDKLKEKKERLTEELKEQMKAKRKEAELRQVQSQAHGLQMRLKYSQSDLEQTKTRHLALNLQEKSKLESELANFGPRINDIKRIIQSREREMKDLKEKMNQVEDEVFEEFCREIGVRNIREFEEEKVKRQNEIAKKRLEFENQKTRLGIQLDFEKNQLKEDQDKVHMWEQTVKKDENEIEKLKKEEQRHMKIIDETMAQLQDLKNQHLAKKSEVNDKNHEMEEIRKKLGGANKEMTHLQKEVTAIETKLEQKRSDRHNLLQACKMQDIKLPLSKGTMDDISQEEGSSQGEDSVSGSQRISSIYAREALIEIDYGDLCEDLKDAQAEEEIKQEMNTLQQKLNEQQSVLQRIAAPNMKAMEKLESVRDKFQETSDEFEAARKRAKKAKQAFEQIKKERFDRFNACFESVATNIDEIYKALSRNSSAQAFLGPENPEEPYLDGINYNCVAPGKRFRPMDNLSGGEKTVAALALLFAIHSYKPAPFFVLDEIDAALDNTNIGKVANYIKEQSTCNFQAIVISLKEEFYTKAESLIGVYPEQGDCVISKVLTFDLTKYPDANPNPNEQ

MDA-MB-231 [7] = assay: Antiproliferative activity against human MDA-MB-231 cells assessed as reduction in Ki67 expression measured after 48 hrs by immunofluorescence analysis; assay type: functional, cell-based
MDA-MB-231 [8] = assay: Induction of DNA damage in human MDA-MB-231 cells assessed as reduction in BRCA2 expression measured after 6 to 48 hrs by Western blot analysis; assay type: functional, cell-based; conditions: dose 5-20 µM, time 6-48 hrs, DDE = dose-dependent effect
U-87 MG = assay: Antiproliferative activity against human U87 cells assessed as cell growth inhibition measured after 48 hrs by MTT assay; assay type: functional, cell-based, U-87MG ATCC
MDA-MB-468 [9] = assay: Induction of apoptosis in human MDA-MB-468 cells assessed as increase in cleaved caspase-3 expression measured after 48 hrs by Western blot analysis; assay type: functional, cell-based; conditions: dose 5-20 µM, DDE = dose-dependent effect
HSC-3 = assay: Antiproliferative activity against human HSC-3 cells assessed as cell growth inhibition measured after 48 hrs by MTT assay; assay type: functional, cell-based; conditions: HSC-3, 48 h
[10] = molecular target: T1, Structural maintenance of chromosomes protein 1A (Homo sapiens); assay: Activation of SMC1 phosphorylation in human MDA-MB-468 cells at 5 to 20 uM measured after 6 to 48 hrs by Western blot analysis; assay type: cell-based; conditions: filed as activator, dose 5-20 µM, time 6-48 hrs
MDA-MB-468 [11] = assay: Induction of apoptosis in human MDA-MB-468 cells assessed as increase in Bim expression measured after 48 hrs by Western blot analysis; assay type: functional, cell-based; conditions: dose 5-20 µM, DDE = dose-dependent effect
MDA-MB-231 [12] = assay: Induction of apoptosis in human MDA-MB-231 cells assessed as increase in cleaved caspase-3 expression measured after 48 hrs by Western blot analysis; assay type: functional, cell-based; conditions: dose 5-20 µM, DDE = dose-dependent effect
MDA-MB-231 [13] = assay: Antitumor activity against human MDA-MB-231 cells xenografted in ip dosed NOD/SCID mouse assessed as upregulation of gamma-H2AX expression administered at 3 days interval for 24 days and measured on day 25 by Western blot analysis; assay type: functional, organism-based; conditions: dose 5-15 mg/kg, time 25.0 day, DDE = dose-dependent effect
MDA-MB-231 [14] = assay: Antiproliferative activity against human MDA-MB-231 cells assessed as reduction in cell count by microscopy; assay type: functional, cell-based
MDA-MB-468 [15] = assay: Inhibition of autophagic flux in human MDA-MB-468 cells assessed as increase in cytoplasmic p62 expression measured after 48 hrs by Western blot analysis; assay type: functional, cell-based; conditions: dose 5-20 µM, DDE = dose-dependent effect
MDA-MB-468 [16] = assay: Cell cycle arrest in human MDA-MB-468 cells assessed as reduction in cyclin B expression measured after 48 hrs by Western blot analysis; assay type: functional, cell-based; conditions: dose 5-20 µM, DDE = dose-dependent effect
MDA-MB-231 [17] = assay: Induction of apoptosis in human MDA-MB-231 cells assessed as increase in cleaved PARP expression measured after 48 hrs by Western blot analysis; assay type: functional, cell-based; conditions: dose 5-20 µM, DDE = dose-dependent effect
MDA-MB-231 [18] = assay: Induction of apoptosis in human MDA-MB-231 cells assessed as increase in cytochrome c expression measured after 48 hrs by Western blot analysis; assay type: functional, cell-based; conditions: dose 5-20 µM, DDE = dose-dependent effect
MDA-MB-231 [19] = assay: Antitumor activity against human MDA-MB-231 cells xenografted in ip dosed NOD/SCID mouse assessed as upregulation of PARP expression administered at 3 days interval for 24 days and measured on day 25 by Western blot analysis; assay type: functional, organism-based; conditions: dose 5-15 mg/kg, time 25.0 day, DDE = dose-dependent effect
MDA-MB-231 [20] = assay: Antitumor activity against human MDA-MB-231 cells xenografted in NOD/SCID mouse assessed as reduction in cell count at 5 to 15 mg/kg, ip administered at 3 days interval for 24 days and measured on day 25 by H and E staining based assay; assay type: functional, organism-based; conditions: dose 5-15 mg/kg, time 25.0 day

O=C(NC1CCCCC1)c1[nH]cnc1-c1nc2ccccc2[nH]1
active: inhibition (MDA-MB-231 [1]) Dde | Activity (MDA-MB-231 [2]) Dde | Activity (MDA-MB-468 [3]) | inhibition (MDA-MB-468 [5]) | Activity [6] | Activity (MDA-MB-231 [7]) | Activity (MDA-MB-231 [8]) Dde | Activity (MDA-MB-468 [9]) Dde | Activity [10] | Activity (MDA-MB-468 [11]) Dde | Activity (MDA-MB-231 [12]) Dde | Activity (MDA-MB-231 [13]) Dde | Activity (MDA-MB-231 [14]) | inhibition (MDA-MB-468 [15]) Dde | Activity (MDA-MB-468 [16]) Dde | Activity (MDA-MB-231 [17]) Dde | Activity (MDA-MB-231 [18]) Dde | Activity (MDA-MB-231 [19]) Dde | Activity (MDA-MB-231 [20])
4.76: pIC50 (PC-3)
4.81: pIC50 (U-87 MG)
4.62: pIC50 (HSC-3)
50%: Activity (MDA-MB-231 [4])

Source: ChEMBL document CHEMBL5113482, “Discovery of fused benzimidazole-imidazole autophagic flux inhibitors for treatment of triple-negative breast cancer” (Eur J Med Chem, 2022)
